Tests used:
[1] = test system: patients with and without the E508K variant of HNF1A; assay: Study of acute glipizide response in humans with the HNF1A E508K variant; assay type: in vivo, human; conditions: carriers vs non-carriers of HNF1A E508K, preliminary results, statistical analysis ongoing
Method: Acute and medium-term response to glipizide in patients with and without the E508K variant of HNF1A will be measured. The study will consist of two phases. Patients will be invited to participate in both, but the research subject will have the freedom to choose only one of the stages of the study.
Open Study of a Single Dose of Glipizide (5 mg) in Patients With and Without the E508K Variant of HNF1A
Main Objective: To compare the change in glucose between carriers and noncarriers after a single oral administration of 5 mg of glipizide. […]
Eligible patients will discontinue antidiabetic therapy and initiate a washout period of 7 days, during which they will be monitored for hyperglycemia requiring re-initiation of antidiabetic therapy. […]
Patients will be admitted to the clinical research center after fasting for 8 hours. […] The concentrations of glucose, insulin and other hormones (GLP1) and metabolites will be measured at 15, 30, 60, 90, 120, 180, and 240 minutes after administration of 5 mg of glipizide. In the event of developing symptoms of hypoglycemia, blood glucose will be measured immediately. […]

[2] = cited from earlier work
[3] = cited from earlier work; remark: listed apart in the source

Row | Compound | hypoglycaemic response to glipizide in carriers of the E508K HNF1A variant [1] | hypoglycaemic response to glipizide in carriers of the E508K HNF1A variant ([1]; listed as glipizide) | risk of inducing severe hypoglycemia ([2]; described as low) | life ([3]; described as short) [h] | time until it starts acting ([3]; oral) [min] | rate of gastrointestinal adverse events ([2]; at the proposed dose)
1 | Cc1cnc(C(=O)NCCc2ccc(S(=O)(=O)NC(=O)NC3CCCCC3)cc2)cn1 [Glipizide] | greater response | great hypoglycaemic response | 0.19-2.5 episodes per 1000 patient-years | 2 to 8 | ≤ 30 | –
2 | CN(C)C(=N)N=C(N)N [Metformin] | – | – | – | – | – | low rate

From US11578368B2, “Methods, tools and systems for the assessment, prevention, management and treatment selection for type 2 diabetes” (Patia Biopharma, S.A. De C.V., priority 2015, dated 2023)
